Test results from PubChem BioAssay AID1963967 (Molecular Pharmacology Branch, DTP, NCI, 2024).

Tested on: 855422-203-R-J1-PDC spheroids with HUVEC/MSC, viability
Experiment: Anticancer human tumor 855422-203-R-J1-PDC patient-derived bladder carcinoma cell line growth inhibition [PI3K]
Conditions: for IC50: curve of first compound; for viability, T/C: stronger effect = lower value
Method in brief: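 Combination activity was assessed by viability in multicellular tumor spheroids carrying HUVEC and MSC components. Agents were tested with PI3K inhibitors from a Cmax-based top dose (or 10 microM) downward in half-log increments.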
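Note: agents incubated with spheroids for one week before read-out.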
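Throughout, for viability, T/C: 100% = DMSO vehicle-treated control wells.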

Q: What does the source list for `CC1(C)CCC(CN2CCN(c3ccc(C(=O)NS(=O)(=O)c4ccc(NCC5CCOCC5)c([N+](=O)[O-])c4)c(Oc4cnc5[nH]ccc5c4)c3)CC2)=C(c2ccc(Cl)cc2)C1` + COc1c(OCCCN2CCOCC2)ccc2c3n(c(=NC(=O)c4cnc(N)nc4)nc12)CCN3?
A: IC50 (second compound 0.00316 µM): 5.28 µM; IC50 (second compound 0.01 µM): 5.04 µM; IC50 (second compound 0.0316 µM): 4.6 µM; IC50 (second compound 0.1 µM): < 0.0316 µM; IC50 (second compound 0.316 µM): < 0.0316 µM; IC50 (second compound 1 µM): < 0.0316 µM; viability, T/C (second compound 0.00316 µM, first compound 0.0316 µM): 98.5%; viability, T/C (second compound 0.00316 µM, first compound 0.1 µM): 80.8%; viability, T/C (second compound 0.00316 µM, first compound 0.316 µM): 99.5%; viability, T/C (second compound 0.00316 µM, first compound 1 µM): 87.2%; viability, T/C (second compound 0.00316 µM, first compound 3.16 µM): 88.1%; viability, T/C (second compound 0.00316 µM, first compound 10 µM): 2.53%; viability, T/C (second compound 0.01 µM, first compound 0.0316 µM): 91%; viability, T/C (second compound 0.01 µM, first compound 0.1 µM): 77.5%; viability, T/C (second compound 0.01 µM, first compound 0.316 µM): 78.3%; viability, T/C (second compound 0.01 µM, first compound 1 µM): 76.4%; viability, T/C (second compound 0.01 µM, first compound 3.16 µM): 90.8%; viability, T/C (second compound 0.01 µM, first compound 10 µM): 1.94%; viability, T/C (second compound 0.0316 µM, first compound 0.0316 µM): 62.5%; viability, T/C (second compound 0.0316 µM, first compound 0.1 µM): 65.3%; viability, T/C (second compound 0.0316 µM, first compound 0.316 µM): 73.7%; viability, T/C (second compound 0.0316 µM, first compound 1 µM): 78.2%; viability, T/C (second compound 0.0316 µM, first compound 3.16 µM): 87.3%; viability, T/C (second compound 0.0316 µM, first compound 10 µM): 1.43%; viability, T/C (second compound 0.1 µM, first compound 0.0316 µM): 29.7%; viability, T/C (second compound 0.1 µM, first compound 0.1 µM): 30.3%; viability, T/C (second compound 0.1 µM, first compound 0.316 µM): 30.6%; viability, T/C (second compound 0.1 µM, first compound 1 µM): 33.5%; viability, T/C (second compound 0.1 µM, first compound 3.16 µM): 31.8%; viability, T/C (second compound 0.1 µM, first compound 10 µM): 1.14%; viability, T/C (second compound 0.316 µM, first compound 0.0316 µM): 12.1%; viability, T/C (second compound 0.316 µM, first compound 0.1 µM): 9.95%; viability, T/C (second compound 0.316 µM, first compound 0.316 µM): 12.7%; viability, T/C (second compound 0.316 µM, first compound 1 µM): 9.33%; viability, T/C (second compound 0.316 µM, first compound 3.16 µM): 9.24%; viability, T/C (second compound 0.316 µM, first compound 10 µM): 0.68%; viability, T/C (second compound 1 µM, first compound 0.0316 µM): 3.97%; viability, T/C (second compound 1 µM, first compound 0.1 µM): 5.15%; viability, T/C (second compound 1 µM, first compound 0.316 µM): 4.27%; viability, T/C (second compound 1 µM, first compound 1 µM): 5.32%; viability, T/C (second compound 1 µM, first compound 3.16 µM): 4.63%; viability, T/C (second compound 1 µM, first compound 10 µM): 1.04%
